Measurements published in PubChem BioAssay AID1963958 (Molecular Pharmacology Branch, DTP, NCI, 2024).

Test system: MDA-MB-231 multicell spheroids, viability
Test: Anticancer human tumor MDA-MB-231 cell line growth inhibition [PI3K];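 further: spheroids exposed to agents for seven days before reading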;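 on viability, T/C: percent of vehicle control luminescence with DMSO treated spheroids as 100%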
Settings: for IC50: curve of first compound; for viability, T/C: stronger effect = lower value
In short: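 Targeted small molecules plus PI3K inhibitors, half-log dose series from Cmax (default top 10 microM), were applied to heterotypic spheroids of cancer cells with HUVEC and MSCs. Viability indicated growth inhibition.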

[1] = second compound 0.0316 µM, first compound 0.0316 µM
[2] = second compound 0.0316 µM, first compound 0.1 µM
[3] = second compound 0.0316 µM, first compound 0.316 µM
[4] = second compound 0.0316 µM, first compound 1 µM
[5] = second compound 0.0316 µM, first compound 3.16 µM
[6] = second compound 0.0316 µM, first compound 10 µM
[7] = second compound 0.1 µM, first compound 0.0316 µM
[8] = second compound 0.1 µM, first compound 0.1 µM
[9] = second compound 0.1 µM, first compound 0.316 µM
[10] = second compound 0.1 µM, first compound 1 µM
[11] = second compound 0.1 µM, first compound 3.16 µM
[12] = second compound 0.1 µM, first compound 10 µM
[13] = second compound 0.316 µM, first compound 0.0316 µM
[14] = second compound 0.316 µM, first compound 0.1 µM
[15] = second compound 0.316 µM, first compound 0.316 µM
[16] = second compound 0.316 µM, first compound 1 µM
[17] = second compound 0.316 µM, first compound 3.16 µM
[18] = second compound 0.316 µM, first compound 10 µM
[19] = second compound 1 µM, first compound 0.0316 µM
[20] = second compound 1 µM, first compound 0.1 µM
[21] = second compound 1 µM, first compound 0.316 µM
[22] = second compound 1 µM, first compound 1 µM
[23] = second compound 1 µM, first compound 3.16 µM
[24] = second compound 1 µM, first compound 10 µM
[25] = second compound 3.16 µM, first compound 0.0316 µM
[26] = second compound 3.16 µM, first compound 0.1 µM
[27] = second compound 3.16 µM, first compound 0.316 µM
[28] = second compound 3.16 µM, first compound 1 µM
[29] = second compound 3.16 µM, first compound 3.16 µM
[30] = second compound 3.16 µM, first compound 10 µM
[31] = second compound 10 µM, first compound 0.0316 µM
[32] = second compound 10 µM, first compound 0.1 µM
[33] = second compound 10 µM, first compound 0.316 µM
[34] = second compound 10 µM, first compound 1 µM
[35] = second compound 10 µM, first compound 3.16 µM
[36] = second compound 10 µM, first compound 10 µM

CC1(C)CCC(CN2CCN(c3ccc(C(=O)NS(=O)(=O)c4ccc(NCC5CCOCC5)c([N+](=O)[O-])c4)c(Oc4cnc5[nH]ccc5c4)c3)CC2)=C(c2ccc(Cl)cc2)C1 + Cc1nc(NC(=O)N2CCCC2C(N)=O)sc1-c1ccnc(C(C)(C)C(F)(F)F)c1
IC50 (second compound 0.0316 µM): 6.18 µM
IC50 (second compound 0.1 µM): 5.98 µM
IC50 (second compound 0.316 µM): 5.8 µM
IC50 (second compound 1 µM): 4.92 µM
IC50 (second compound 3.16 µM): 4.36 µM
IC50 (second compound 10 µM): 4.29 µM
viability, T/C [1]: 93.7%
viability, T/C [2]: 101%
viability, T/C [3]: 96%
viability, T/C [4]: 101%
viability, T/C [5]: 107%
viability, T/C [6]: 14.4%
viability, T/C [7]: 89.2%
viability, T/C [8]: 90.3%
viability, T/C [9]: 87.7%
viability, T/C [10]: 90.8%
viability, T/C [11]: 97%
viability, T/C [12]: 16.8%
viability, T/C [13]: 77.9%
viability, T/C [14]: 79.6%
viability, T/C [15]: 79.2%
viability, T/C [16]: 79.6%
viability, T/C [17]: 83.5%
viability, T/C [18]: 22.9%
viability, T/C [19]: 72.5%
viability, T/C [20]: 73.4%
viability, T/C [21]: 71.7%
viability, T/C [22]: 73.4%
viability, T/C [23]: 74%
viability, T/C [24]: 13.1%
viability, T/C [25]: 69.8%
viability, T/C [26]: 65.9%
viability, T/C [27]: 67.7%
viability, T/C [28]: 72.7%
viability, T/C [29]: 66%
viability, T/C [30]: 8.11%
viability, T/C [31]: 65.8%
viability, T/C [32]: 67.4%
viability, T/C [33]: 58.5%
viability, T/C [34]: 63.1%
viability, T/C [35]: 62%
viability, T/C [36]: 16.7%

C[C@@H](NC(=O)c1ncnc(N)c1Cl)c1ncc(C(=O)Nc2cc(C(F)(F)F)c(Cl)cn2)s1 + Cc1nc(NC(=O)N2CCCC2C(N)=O)sc1-c1ccnc(C(C)(C)C(F)(F)F)c1
IC50 (second compound 0.0316 µM): > 10 µM
IC50 (second compound 0.1 µM): 3.77 µM
IC50 (second compound 0.316 µM): 0.86 µM
IC50 (second compound 1 µM): 0.352 µM
IC50 (second compound 3.16 µM): 0.0947 µM
IC50 (second compound 10 µM): < 0.0316 µM
viability, T/C [1]: 112%
viability, T/C [2]: 77.8%
viability, T/C [3]: 75%
viability, T/C [4]: 72.1%
viability, T/C [5]: 61.3%
viability, T/C [6]: 44.9%
viability, T/C [7]: 99.4%
viability, T/C [8]: 77.2%
viability, T/C [9]: 61.8%
viability, T/C [10]: 67.7%
viability, T/C [11]: 53.6%
viability, T/C [12]: 41.3%
viability, T/C [13]: 81%
viability, T/C [14]: 63.7%
viability, T/C [15]: 53.9%
viability, T/C [16]: 50.2%
viability, T/C [17]: 49.9%
viability, T/C [18]: 37.1%
viability, T/C [19]: 74.8%
viability, T/C [20]: 61%
viability, T/C [21]: 47.1%
viability, T/C [22]: 44.8%
viability, T/C [23]: 38.8%
viability, T/C [24]: 29.2%
viability, T/C [25]: 60.2%
viability, T/C [26]: 48.7%
viability, T/C [27]: 40.6%
viability, T/C [28]: 37.7%
viability, T/C [29]: 35.7%
viability, T/C [30]: 27.4%
viability, T/C [31]: 42.3%
viability, T/C [32]: 37.2%
viability, T/C [33]: 32.3%
viability, T/C [34]: 30.9%
viability, T/C [35]: 24.6%
viability, T/C [36]: 14.9%

Cn1ncnc1[C@H]1c2n[nH]c(=O)c3cc(F)cc(c23)N[C@@H]1c1ccc(F)cc1 + Cc1nc(NC(=O)N2CCCC2C(N)=O)sc1-c1ccnc(C(C)(C)C(F)(F)F)c1
IC50 (second compound 0.0316 µM): > 0.1 µM
IC50 (second compound 0.1 µM): > 0.1 µM
IC50 (second compound 0.316 µM): > 0.1 µM
IC50 (second compound 1 µM): > 0.1 µM
IC50 (second compound 3.16 µM): > 0.1 µM
IC50 (second compound 10 µM): > 0.1 µM
viability, T/C (second compound 0.0316 µM, first compound 0.000316 µM): 89.3%
viability, T/C (second compound 0.0316 µM, first compound 0.001 µM): 88.9%
viability, T/C (second compound 0.0316 µM, first compound 0.00316 µM): 86.8%
viability, T/C (second compound 0.0316 µM, first compound 0.01 µM): 83.4%
viability, T/C [1]: 79%
viability, T/C [2]: 72.6%
viability, T/C (second compound 0.1 µM, first compound 0.000316 µM): 88.4%
viability, T/C (second compound 0.1 µM, first compound 0.001 µM): 82%
viability, T/C (second compound 0.1 µM, first compound 0.00316 µM): 77.5%
viability, T/C (second compound 0.1 µM, first compound 0.01 µM): 68.7%
viability, T/C [7]: 65%
viability, T/C [8]: 63.2%
viability, T/C (second compound 0.316 µM, first compound 0.000316 µM): 67.2%
viability, T/C (second compound 0.316 µM, first compound 0.001 µM): 75.2%
viability, T/C (second compound 0.316 µM, first compound 0.00316 µM): 65.6%
viability, T/C (second compound 0.316 µM, first compound 0.01 µM): 64.1%
viability, T/C [13]: 59.7%
viability, T/C [14]: 53.5%
viability, T/C (second compound 1 µM, first compound 0.000316 µM): 68.3%
viability, T/C (second compound 1 µM, first compound 0.001 µM): 66%
viability, T/C (second compound 1 µM, first compound 0.00316 µM): 65.1%
viability, T/C (second compound 1 µM, first compound 0.01 µM): 60%
viability, T/C [19]: 55.2%
viability, T/C [20]: 49.7%
viability, T/C (second compound 3.16 µM, first compound 0.000316 µM): 64.5%
viability, T/C (second compound 3.16 µM, first compound 0.001 µM): 63.4%
viability, T/C (second compound 3.16 µM, first compound 0.00316 µM): 64.5%
viability, T/C (second compound 3.16 µM, first compound 0.01 µM): 54%
viability, T/C [25]: 54.6%
viability, T/C [26]: 50.4%
viability, T/C (second compound 10 µM, first compound 0.000316 µM): 66%
viability, T/C (second compound 10 µM, first compound 0.001 µM): 63.4%
viability, T/C (second compound 10 µM, first compound 0.00316 µM): 56%
viability, T/C (second compound 10 µM, first compound 0.01 µM): 59.8%
viability, T/C [31]: 54.4%
viability, T/C [32]: 48.8%
